Assay results taken from patent US10532995B2, “Substituted pyrazole compounds as serine protease inhibitors” (VERSEON CORPORATION, priority 2015, dated 2020).

The compounds below were run against T1, Human thrombin (Homo sapiens, UniProt P00734) (assay: Thrombin protease activity inhibition, chromogenic substrate S-2238). Settings: 3 nM thrombin, 125 μM S-2238, 10 min pre-incubation, RT.
T1 construct: purchased Haematologic Technologies Inc
Type: biochemical
How it was run: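 Ten-point, three-fold serial dilutions of compound tested against 3 nM enzyme at RT in Tris buffer (0.05 M, pH 7.4) with 0.015 M NaCl and 0.01% PEG-8000.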

SMILES	IC50 [nM]
COc1ccccc1C(=O)n1nc(C2(C)CCCN2C(=O)OC(C)(C)C)cc1NCc1ccc(Cl)s1 (centres unmarked) [Entry 272, tert-butyl 2-(5-[(5-chlorothiophen-2-yl)methyl]amino-1-(2-methoxybenzoyl)-1H-pyrazol-3-yl)-2-methylpyrrolidine-1-carboxylate]	1000 to 10000
COc1ccccc1C(=O)n1nc(C2CCCN2C(=O)OC(C)(C)C)cc1NCc1ccc(Cl)s1 (centres unmarked) [Entry 273, tert-butyl 2-(5-[(5-chlorothiophen-2-yl)methyl]amino-1-(2-methoxybenzoyl)-1H-pyrazol-3-yl)pyrrolidine-1-carboxylate]	1000 to 10000
CC(C)(C)OC(=O)N1CCCC1(C)c1cc(NCc2ccc(Cl)s2)n(C(=O)C(C)(C)CO)n1 (centres unmarked) [Entry 274, tert-butyl 2-(5-[(5-chlorothiophen-2-yl)methyl]amino-1-(3-hydroxy-2,2-dimethylpropanoyl)-1H-pyrazol-3-yl)-2-methylpyrrolidine-1-carboxylate]	100 to 1000
CC(C)(C)OC(=O)N1CCCC1(C)c1cc(NCc2ccc(Cl)s2)n(C(=O)C2(C)CCOCC2)n1 (centres unmarked) [Entry 275, tert-butyl 2-(5-[(5-chlorothiophen-2-yl)methyl]amino-1-(4-methyloxane-4-carbonyl)-1H-pyrazol-3-yl)-2-methylpyrrolidine-1-carboxylate]	1000 to 10000
CC(C)(C)OC(=O)N1CCCC1(C)c1cc(NCc2ccc(Cl)s2)n(C(=O)c2ccsc2)n1 (centres unmarked) [Entry 276, tert-butyl 2-(5-[(5-chlorothiophen-2-yl)methyl]amino-1-(thiophene-3-carbonyl)-1H-pyrazol-3-yl)-2-methylpyrrolidine-1-carboxylate]	> 100000
CC(C)(C)OC(=O)N1CCCC1c1cc(NCc2ccc(Cl)s2)[nH]n1 (centres unmarked) [Entry 277, tert-butyl 2-(5-[(5-chlorothiophen-2-yl)methyl]amino-1H-pyrazol-3-yl)pyrrolidine-1-carboxylate]	> 100000
CC(C)(C)OC(=O)N1CCCC(C)(c2cc(NCc3ccc(Cl)s3)n(C(=O)C(C)(C)C)n2)C1 (centres unmarked) [Entry 278, tert-butyl 3-(5-[(5-chlorothiophen-2-yl)methyl]amino-1-(2,2-dimethylpropanoyl)-1H-pyrazol-3-yl)-3-methylpiperidine-1-carboxylate]	< 100
CC(C)(C)OC(=O)N1CCCC(c2cc(NCc3ccc(Cl)s3)n(C(=O)C(C)(C)C)n2)C1 (centres unmarked) [Entry 279, tert-butyl 3-(5-[(5-chlorothiophen-2-yl)methyl]amino-1-(2,2-dimethylpropanoyl)-1H-pyrazol-3-yl)piperidine-1-carboxylate]	< 100
COc1ccccc1C(=O)n1nc(C2(C)CCCN(C(=O)OC(C)(C)C)C2)cc1NCc1ccc(Cl)s1 (centres unmarked) [Entry 280, tert-butyl 3-(5-[(5-chlorothiophen-2-yl)methyl]amino-1-(2-methoxybenzoyl)-1H-pyrazol-3-yl)-3-methylpiperidine-1-carboxylate]	< 100
COc1ccccc1C(=O)n1nc(C2CCCN(C(=O)OC(C)(C)C)C2)cc1NCc1ccc(Cl)s1 (centres unmarked) [Entry 281, tert-butyl 3-(5-[(5-chlorothiophen-2-yl)methyl]amino-1-(2-methoxybenzoyl)-1H-pyrazol-3-yl)piperidine-1-carboxylate]	< 100
CC(C)(C)OC(=O)N1CCCC(C)(c2cc(NCc3ccc(Cl)s3)n(C(=O)C(C)(C)CO)n2)C1 (centres unmarked) [Entry 282, tert-butyl 3-(5-[(5-chlorothiophen-2-yl)methyl]amino-1-(3-hydroxy-2,2-dimethylpropanoyl)-1H-pyrazol-3-yl)-3-methylpiperidine-1-carboxylate]	< 100
CC(C)(C)OC(=O)N1CCCC(c2cc(NCc3ccc(Cl)s3)n(C(=O)C(C)(C)CO)n2)C1 (centres unmarked) [Entry 283, tert-butyl 3-(5-[(5-chlorothiophen-2-yl)methyl]amino-1-(3-hydroxy-2,2-dimethylpropanoyl)-1H-pyrazol-3-yl)piperidine-1-carboxylate]	< 100
COCC(C)(C)C(=O)n1nc(C2(C)CCCN(C(=O)OC(C)(C)C)C2)cc1NCc1ccc(Cl)s1 (centres unmarked) [Entry 284, tert-butyl 3-(5-[(5-chlorothiophen-2-yl)methyl]amino-1-(3-methoxy-2,2-dimethylpropanoyl)-1H-pyrazol-3-yl)-3-methylpiperidine-1-carboxylate]	100 to 1000
COCC(C)(C)C(=O)n1nc(C2CCCN(C(=O)OC(C)(C)C)C2)cc1NCc1ccc(Cl)s1 (centres unmarked) [Entry 285, tert-butyl 3-(5-[(5-chlorothiophen-2-yl)methyl]amino-1-(3-methoxy-2,2-dimethylpropanoyl)-1H-pyrazol-3-yl)piperidine-1-carboxylate]	< 100
CC(C)(C)OC(=O)N1CCCC(C)(c2cc(NCc3ccc(Cl)s3)n(C(=O)C3(C)CCOCC3)n2)C1 (centres unmarked) [Entry 286, tert-butyl 3-(5-[(5-chlorothiophen-2-yl)methyl]amino-1-(4-methyloxane-4-carbonyl)-l H-pyrazol-3-yl)-3-methylpiperidine-1-carboxylate]	100 to 1000
CC(C)(C)OC(=O)N1CCCC(c2cc(NCc3ccc(Cl)s3)n(C(=O)C3(C)CCOCC3)n2)C1 (centres unmarked) [Entry 287, tert-butyl 3-(5-[(5-chlorothiophen-2-yl)methyl]amino-1-(4-methyloxane-4-carbonyl)-1H-pyrazol-3-yl)piperidine-1-carboxylate]	< 100
CC(C)(C)OC(=O)N1CCCC(C)(c2cc(NCc3ccc(Cl)s3)n(C(=O)c3ccsc3)n2)C1 (centres unmarked) [Entry 288, tert-butyl 3-(5-[(5-chlorothiophen-2-yl)methyl]amino-1-(thiophene-3-carbonyl)-1H-pyrazol-3-yl)-3-methylpiperidine-1-carboxylate]	< 100
CC(C)(C)OC(=O)N1CCCC(c2cc(NCc3ccc(Cl)s3)n(C(=O)c3ccsc3)n2)C1 (centres unmarked) [Entry 289, tert-butyl 3-(5-[(5-chlorothiophen-2-yl)methyl]amino-1-(thiophene-3-carbonyl)-1H-pyrazol-3-yl)piperidine-1-carboxylate]	< 100
CC(C)(C)OC(=O)N1CCC(C)(c2cc(NCc3ccc(Cl)s3)n(C(=O)C(C)(C)C)n2)CC1 [Entry 291, tert-butyl 4-(5-[(5-chlorothiophen-2-yl)methyl]amino-1-(2,2-dimethylpropanoyl)-1H-pyrazol-3-yl)-4-methylpiperidine-1-carboxylate]	< 100
COc1ccccc1C(=O)n1nc(C2(C)CCN(C(=O)OC(C)(C)C)CC2)cc1NCc1ccc(Cl)s1 [Entry 294, tert-butyl 4-(5-[(5-chlorothiophen-2-yl)methyl]amino-1-(2-methoxybenzoyl)-1H-pyrazol-3-yl)-4-methylpiperidine-1-carboxylate]	< 100
CC(C)(C)OC(=O)N1CCC(C)(c2cc(NCc3ccc(Cl)s3)n(C(=O)C(C)(C)CO)n2)CC1 [Entry 296, tert-butyl 4-(5-[(5-chlorothiophen-2-yl)methyl]amino-1-(3-hydroxy-2,2-dimethylpropanoyl)-1H-pyrazol-3-yl)-4-methylpiperidine-1-carboxylate]	< 100

Continued, values first:

IC50 [nM]	SMILES
> 100000	C=CCOC(=O)N1CCCC(c2cc(NCc3ccc(Cl)s3)[nH]n2)CC1 (centres unmarked) [Entry 265, prop-2-en-1-yl 4-(5-[(5-chlorothiophen-2-yl)methyl]amino-1H-pyrazol-3-yl)azepane-1-carboxylate]
> 100000	C=CCOC(=O)N1CCC(c2cc(NCc3ccc(Cl)s3)[nH]n2)CC1 [Entry 266, prop-2-en-1-yl 4-(5-[(5-chlorothiophen-2-yl)methyl]amino-1H-pyrazol-3-yl)piperidine-1-carboxylate]
< 100	C=CCOC(=O)N1CCC(c2nn(C(=O)C(C)(C)C)c(NCc3ccc(Cl)s3)c2C#N)CC1 [Entry 267, prop-2-en-1-yl 4-(5-[(5-chlorothiophen-2-yl)methyl]amino-4-cyano-1-(2,2-dimethylpropanoyl)-1H-pyrazol-3-yl)piperidine-1-carboxylate]
1000 to 10000	C=CCOC(=O)N1CCC(c2n[nH]c(NCc3ccc(Cl)s3)c2C#N)CC1 [Entry 268, prop-2-en-1-yl 4-(5-[(5-chlorothiophen-2-yl)methyl]amino-4-cyano-1H-pyrazol-3-yl)piperidine-1-carboxylate]
> 100000	C=CCOC(=O)N1CCC(c2n[nH]c(NCc3ccc(Cl)s3)c2F)CC1 [Entry 269, prop-2-en-1-yl 4-(5-[(5-chlorothiophen-2-yl)methyl]amino-4-fluoro-1H-pyrazol-3-yl)piperidine-1-carboxylate]
< 100	C=CCOC(=O)N1CCC(c2nn(C(=O)c3cscn3)c(NCc3ccc(Cl)s3)c2C)CC1 [Entry 270, prop-2-en-1-yl 4-(5-[(5-chlorothiophen-2-yl)methyl]amino-4-methyl-1-(1,3-thiazole-4-carbonyl)-1H-pyrazol-3-yl)piperidine-1-carboxylate]
> 100000	C=CCOC(=O)N1CCC(c2n[nH]c(NCc3ccc(Cl)s3)c2C)CC1 [Entry 271, prop-2-en-1-yl 4-(5-[(5-chlorothiophen-2-yl)methyl]amino-4-methyl-1H-pyrazol-3-yl)piperidine-1-carboxylate]
> 100000	CC(C)(C)OC(=O)N1CCCC(c2cc(NCc3ccc(Cl)s3)[nH]n2)C1 (centres unmarked) [Entry 290, tert-butyl 3-(5-[(5-chlorothiophen-2-yl)methyl]amino-1H-pyrazol-3-yl)piperidine-1-carboxylate]
< 100	CC(C)(C)OC(=O)N1CCC(c2cc(NCc3ccc(Cl)s3)n(C(=O)C(C)(C)C)n2)CC1 [Entry 292, tert-butyl 4-(5-[(5-chlorothiophen-2-yl)methyl]amino-1-(2,2-dimethylpropanoyl)-1H-pyrazol-3-yl)piperidine-1-carboxylate]
100 to 1000	Cc1c(C2CCN(C(=O)OC(C)(C)C)CC2)nn(C(=O)C(C)(C)C)c1NCc1ccc(Cl)s1 [Entry 293, tert-butyl 4-(5-[(5-chlorothiophen-2-yl)methyl]amino-1-(2,2-dimethylpropanoyl)-4-methyl-1H-pyrazol-3-yl)piperidine-1-carboxylate]
< 100	COc1ccccc1C(=O)n1nc(C2CCN(C(=O)OC(C)(C)C)CC2)cc1NCc1ccc(Cl)s1 [Entry 295, tert-butyl 4-(5-[(5-chlorothiophen-2-yl)methyl]amino-1-(2-methoxybenzoyl)-1H-pyrazol-3-yl)piperidine-1-carboxylate]
